Test results as given in the NIST ThermoML archive (doi:10.1021/je2009413).
Numbers after ± are expanded uncertainties.

What was measured:
[1] = osmotic coefficient (dimensionless); mn = molality of the nth substance listed, in mol/kg; settings: 298.15 K, Liquid, isopiestic method
[2] = mean ionic activity coefficient (dimensionless); mn = molality of the nth substance listed, in mol/kg; settings: 298.15 K, Liquid, Isopiestic method

CCC(C)[N+](CC)(CC)CC.[I-] (stereo unspecified) [N,N,N-triethyl-2-butanaminium iodide] + O
Settings	mean ionic activity coefficient, [2]	osmotic coefficient, [1]
m1 = 0.0355	0.7342 ± 0.0001	0.868 ± 0.0099
m1 = 0.0419	0.7111 ± 0.0001	0.857 ± 0.01
m1 = 0.0466	0.6955 ± 0.0001	0.849 ± 0.01
m1 = 0.0596	0.6571 ± 0.0001	0.833 ± 0.01
m1 = 0.0659	0.6405 ± 0.0001	0.827 ± 0.01
m1 = 0.0701	0.6301 ± 0.0001	0.82 ± 0.01
m1 = 0.078	0.6116 ± 0.0001	0.814 ± 0.011
m1 = 0.0914	0.5833 ± 0.0001	0.801 ± 0.011
m1 = 0.0985	0.5696 ± 0.0001	0.794 ± 0.011
m1 = 0.1038	0.5599 ± 0.0001	0.79 ± 0.011
m1 = 0.1115	0.5465 ± 0.0001	0.784 ± 0.011
m1 = 0.1743	0.4605 ± 0.0001	0.728 ± 0.012
m1 = 0.1756	0.459 ± 0.0001	0.728 ± 0.012
m1 = 0.2078	0.4262 ± 0.0001	0.704 ± 0.013
m1 = 0.2438	0.3955 ± 0.0001	0.676 ± 0.013
m1 = 0.248	0.3922 ± 0.0001	0.673 ± 0.013
m1 = 0.2939	0.3602 ± 0.0001	0.651 ± 0.014
m1 = 0.338	0.3347 ± 0.0001	0.621 ± 0.015
m1 = 0.3717	0.3178 ± 0.0001	0.616 ± 0.015
m1 = 0.3901	0.3094 ± 0.0001	0.602 ± 0.015
m1 = 0.431	0.2924 ± 0.0001	0.578 ± 0.016
m1 = 0.4744	0.2766 ± 0.0001	0.57 ± 0.017
m1 = 0.5204	0.2619 ± 0.0001	0.554 ± 0.017
m1 = 0.5785	0.2458 ± 0.0001	0.538 ± 0.018
m1 = 0.624	0.2347 ± 0.0001	0.525 ± 0.018
m1 = 0.665	0.2257 ± 0.0001	0.52 ± 0.019
m1 = 0.6928	0.22 ± 0.0001	0.508 ± 0.019
m1 = 0.8	0.2011 ± 0.0001	0.49 ± 0.02
m1 = 0.847	0.194 ± 0.0001	0.486 ± 0.02
m1 = 0.9185	0.1842 ± 0.0001	0.48 ± 0.02
m1 = 0.978	0.177 ± 0.0001	0.468 ± 0.021
m1 = 1.091	0.1651 ± 0.0001	0.456 ± 0.021
m1 = 1.19	0.1562 ± 0.0001	0.445 ± 0.021
m1 = 1.306	0.1471 ± 0.0001	0.433 ± 0.022
m1 = 1.407	0.1402 ± 0.0001	0.427 ± 0.022
m1 = 1.545	0.132 ± 0.0001	0.413 ± 0.023
m1 = 1.715	0.1234 ± 0.0001	0.411 ± 0.023
m1 = 1.891	0.1159 ± 0.0001	0.407 ± 0.023
m1 = 1.928	0.1144 ± 0.0001	0.412 ± 0.023
m1 = 1.988	0.1122 ± 0.0001	0.407 ± 0.023
m1 = 2.019	0.111 ± 0.0001	0.408 ± 0.023
m1 = 2.09	0.1086 ± 0.0001	0.417 ± 0.023
m1 = 2.172	0.1059 ± 0.0001	0.413 ± 0.023
m1 = 2.413	0.0987 ± 0.0001	0.43 ± 0.022

CC[N+](CC)(CC)CC(C)C.[I-] [N,N,N-triethyl-2-methyl-1-propanaminium iodide] + O
Settings	mean ionic activity coefficient, [2]	osmotic coefficient, [1]
m1 = 0.0366	0.7118 ± 0.0001	0.841 ± 0.01
m1 = 0.0433	0.6866 ± 0.0001	0.828 ± 0.01
m1 = 0.0483	0.6687 ± 0.0001	0.819 ± 0.01
m1 = 0.0624	0.6257 ± 0.0001	0.795 ± 0.011
m1 = 0.0695	0.6067 ± 0.0001	0.784 ± 0.011
m1 = 0.0739	0.5963 ± 0.0001	0.778 ± 0.011
m1 = 0.0824	0.5764 ± 0.0001	0.769 ± 0.011
m1 = 0.0975	0.5439 ± 0.0001	0.751 ± 0.012
m1 = 0.1055	0.5296 ± 0.0001	0.741 ± 0.012
m1 = 0.1113	0.5191 ± 0.0001	0.736 ± 0.012
m1 = 0.12	0.5042 ± 0.0001	0.729 ± 0.012
m1 = 0.1872	0.4149 ± 0.0001	0.678 ± 0.013
m1 = 0.1889	0.4131 ± 0.0001	0.677 ± 0.013
m1 = 0.2234	0.3799 ± 0.0001	0.655 ± 0.014
m1 = 0.2618	0.3493 ± 0.0001	0.63 ± 0.015
m1 = 0.265	0.347 ± 0.0001	0.63 ± 0.015
m1 = 0.3183	0.3131 ± 0.0001	0.601 ± 0.015
m1 = 0.3626	0.2901 ± 0.0001	0.579 ± 0.016
m1 = 0.4063	0.2708 ± 0.0001	0.563 ± 0.017
m1 = 0.4229	0.2643 ± 0.0001	0.555 ± 0.017
m1 = 0.4602	0.2508 ± 0.0001	0.541 ± 0.018
m1 = 0.5128	0.2343 ± 0.0001	0.527 ± 0.018
m1 = 0.5607	0.2214 ± 0.0001	0.514 ± 0.019
m1 = 0.6289	0.2056 ± 0.0001	0.495 ± 0.02
m1 = 0.6797	0.1956 ± 0.0001	0.482 ± 0.02
m1 = 0.737	0.1857 ± 0.0001	0.469 ± 0.021
m1 = 0.749	0.1837 ± 0.0001	0.47 ± 0.021
m1 = 0.8695	0.1669 ± 0.0001	0.451 ± 0.021
m1 = 0.9418	0.1587 ± 0.0001	0.437 ± 0.022
m1 = 1.034	0.1496 ± 0.0001	0.426 ± 0.022
m1 = 1.1	0.144 ± 0.0001	0.416 ± 0.023
m1 = 1.232	0.1343 ± 0.0001	0.404 ± 0.023
m1 = 1.352	0.1271 ± 0.0001	0.392 ± 0.024
m1 = 1.465	0.1213 ± 0.0001	0.386 ± 0.024
m1 = 1.595	0.1156 ± 0.0001	0.377 ± 0.024
m1 = 1.703	0.1115 ± 0.0001	0.375 ± 0.024
m1 = 1.891	0.1055 ± 0.0001	0.373 ± 0.024
m1 = 2.044	0.1013 ± 0.0001	0.377 ± 0.024
m1 = 2.096	0.0994 ± 0.0001	0.379 ± 0.024
m1 = 2.142	0.0984 ± 0.0001	0.378 ± 0.024
m1 = 2.163	0.0981 ± 0.0001	0.381 ± 0.024
m1 = 2.254	0.0955 ± 0.0001	0.387 ± 0.024
m1 = 2.308	0.0941 ± 0.0001	0.389 ± 0.024
m1 = 2.528	0.0917 ± 0.0001	0.41 ± 0.023
